Measured values: PubChem BioAssay (NCI)
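Following 48 hours of exposure in 96-well plates, responses at five concentrations were used to interpolate endpoints linearly. Abbreviation: GI50, concentration required for 50% inhibition of growth. TGI: total growth inhibition.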

Columns and labels:
Test in all cases: NCI-60 cell line screen, 48 h
[1] = system: MOLT-4 leukemia
[2] = system: SF-268 CNS
[3] = system: M19-MEL melanoma
[4] = system: LOX IMVI melanoma
[5] = system: DMS 273 small cell lung
[6] = system: LXFL 529 NSCLC
[7] = system: SK-MEL-5 melanoma
[8] = system: UACC-62 melanoma
[9] = system: UACC-257 melanoma
[10] = system: T-47D breast

## COC(=O)C1Cc2c(n(C)c3ccccc23)C(c2ccccc2)N1 (stereo not given)
[1]
  TGI: > 100 µM
[2]
  TGI: > 100 µM
[3]
  TGI: > 100 µM
[4]
  TGI: > 100 µM
[5]
  TGI: > 100 µM
[6]
  TGI: > 100 µM
[7]
  TGI: 93 µM
[8]
  TGI: > 100 µM
[9]
  TGI: 32 µM

## C=CC[P@@]1(=O)O[C@H](c2ccccc2)C(C)N1C(C)C (stereo not given in full)
[1]
  TGI: > 100 µM
[2]
  TGI: > 100 µM
[3]
  TGI: > 100 µM
[4]
  TGI: > 100 µM
[5]
  TGI: > 100 µM
[6]
  TGI: > 100 µM
[7]
  TGI: > 100 µM
[8]
  TGI: > 100 µM

## O=[N+]([O-])c1ccc(OCCNc2cccc3ccccc23)cc1
[1]
  TGI: > 100 µM
[2]
  TGI: > 100 µM
[3]
  TGI: > 100 µM
[5]
  TGI: > 100 µM
[6]
  TGI: > 100 µM
[7]
  TGI: > 100 µM
[8]
  TGI: > 100 µM
[9]
  TGI: > 100 µM

## O=C1C(c2ccc(Cl)cc2)=[N+]([O-])c2ccccc21
[1]
  TGI: > 100 µM
[2]
  TGI: 28.8 µM
[3]
  TGI: > 100 µM
[4]
  TGI: 27.7 µM
[6]
  TGI: 18.6 µM
[7]
  TGI: 26.6 µM
[8]
  TGI: 32.2 µM
[9]
  TGI: 30.3 µM

## O=[N+]([O-])c1ccc2c(c1)OCCOCCOc1ccc([N+](=O)[O-])cc1OCCOCCO2
[1]
  TGI: > 100 µM
[2]
  TGI: > 100 µM
[4]
  TGI: > 100 µM
[5]
  TGI: > 100 µM
[7]
  TGI: > 100 µM
[8]
  TGI: > 100 µM
[9]
  TGI: > 100 µM

## CC1=CCP(C(F)(F)F)P(C(F)(F)F)C1 (stereo not given)
[1]
  TGI: > 100 µM
[2]
  TGI: > 100 µM
[3]
  TGI: > 100 µM
[4]
  TGI: > 100 µM
[6]
  TGI: > 100 µM
[7]
  TGI: > 100 µM
[8]
  TGI: > 100 µM
[9]
  TGI: > 100 µM

## N#C[C@]12CC3(CC[C@H]1CC1(C2)OCCO1)OCCO3
[1]
  TGI: > 100 µM
[2]
  TGI: > 100 µM
[3]
  TGI: > 100 µM
[5]
  TGI: > 100 µM
[6]
  TGI: > 100 µM
[7]
  TGI: > 100 µM
[8]
  TGI: > 100 µM
[9]
  TGI: > 100 µM

## Cc1cc(N(CCC#N)CCC#N)ccc1N=Nc1ccccc1[N+](=O)[O-]
[1]
  TGI: > 100 µM
[2]
  TGI: > 100 µM
[3]
  TGI: > 100 µM
[4]
  TGI: > 100 µM
[5]
  TGI: > 100 µM
[6]
  TGI: > 100 µM
[7]
  TGI: > 100 µM
[8]
  TGI: > 100 µM
[9]
  TGI: > 100 µM

## CCCCCCC(O)C/C=C/CCCCCC/C(C(=O)OC)=C(/O)C(=O)OCC (stereo not given)
[1]
  TGI: > 100 µM
[2]
  TGI: > 100 µM
[3]
  TGI: > 100 µM
[4]
  TGI: > 100 µM
[5]
  TGI: > 100 µM
[6]
  TGI: > 100 µM
[7]
  TGI: > 100 µM
[8]
  TGI: > 100 µM
[9]
  TGI: > 100 µM

## Cc1ccc(C)c(NC(=O)CC2C(=O)Nc3ccccc3S2(=O)=O)c1 (stereo not given)
[1]
  TGI: > 100 µM
[2]
  TGI: > 100 µM
[3]
  TGI: > 100 µM
[4]
  TGI: > 100 µM
[5]
  TGI: > 100 µM
[6]
  TGI: > 100 µM
[7]
  TGI: > 100 µM
[8]
  TGI: > 100 µM
[9]
  TGI: > 100 µM

## CC(=O)CC(=O)CCCC(=O)Nc1ccc(Cl)cc1Cl
[1]
  TGI: > 100 µM
[2]
  TGI: > 100 µM
[4]
  TGI: > 100 µM
[5]
  TGI: > 100 µM
[6]
  TGI: > 100 µM
[8]
  TGI: > 100 µM
[9]
  TGI: > 100 µM

## N.N.NCCCCN.O=C([O-])CC(=O)[O-].O=C([O-])CC(=O)[O-].[Pt+4].[Pt+4]
[1]
  GI50: 52.8 µM
  TGI: > 100 µM
[2]
  GI50: > 100 µM
  TGI: > 100 µM
[4]
  GI50: 78.3 µM
  TGI: > 100 µM
[5]
  GI50: 89.2 µM
  TGI: > 100 µM
[6]
  GI50: > 100 µM
  TGI: > 100 µM
[7]
  GI50: > 100 µM
  TGI: > 100 µM
[8]
  GI50: 77.4 µM
  TGI: > 100 µM
[9]
  GI50: > 100 µM
  TGI: > 100 µM

## COC(=O)C(=O)C(C(=O)C(=O)Nc1ccc([N+](=O)[O-])cc1[N+](=O)[O-])c1nc2ccc([N+](=O)[O-])cc2[nH]c1=O (stereo not given)
[1]
  TGI: > 100 µM
[2]
  TGI: > 100 µM
[3]
  TGI: > 100 µM
[4]
  TGI: > 100 µM
[5]
  TGI: > 100 µM
[6]
  TGI: > 100 µM
[8]
  TGI: > 100 µM
[9]
  TGI: > 100 µM

## CN(C)CCN1N=Nc2cccc3cccc1c23
[1]
  TGI: > 87.3 µM
[2]
  TGI: > 100 µM
[4]
  TGI: > 100 µM
[5]
  TGI: 87.7 µM
[6]
  TGI: > 100 µM
[7]
  TGI: > 100 µM
[8]
  TGI: > 100 µM
[9]
  TGI: > 100 µM

## O=C1C2c3[nH]c4ccccc4c3C3CCSCC3C2C(=O)N1c1ccccc1 (stereo not given)
[1]
  TGI: > 100 µM
[2]
  TGI: > 100 µM
[3]
  TGI: > 100 µM
[4]
  TGI: > 100 µM
[5]
  TGI: > 100 µM
[6]
  TGI: > 100 µM
[7]
  TGI: > 100 µM
[8]
  TGI: > 100 µM
[9]
  TGI: > 100 µM

## COC1CCC2C(=O)CCCC2O1 (stereo not given)
[1]
  TGI: > 100 µM
[2]
  TGI: > 100 µM
[3]
  TGI: > 100 µM
[5]
  TGI: > 100 µM
[6]
  TGI: > 100 µM
[7]
  TGI: > 100 µM
[8]
  TGI: > 100 µM
[9]
  TGI: > 100 µM

## CC1(c2ccccc2)CC12C(=O)NC(=O)NC2=O (stereo not given)
[1]
  TGI: > 100 µM
[2]
  TGI: > 100 µM
[3]
  TGI: > 100 µM
[4]
  TGI: > 100 µM
[5]
  TGI: > 100 µM
[6]
  TGI: > 100 µM
[7]
  TGI: > 100 µM
[8]
  TGI: > 100 µM
[9]
  TGI: > 100 µM

## CC(C)(C)C(=O)Nc1ccccc1Br
[1]
  TGI: > 100 µM
[3]
  TGI: > 100 µM
[4]
  TGI: > 100 µM
[5]
  TGI: > 100 µM
[6]
  TGI: > 100 µM
[7]
  TGI: > 100 µM
[8]
  TGI: > 100 µM
[9]
  TGI: > 100 µM

## Cc1ccc(C2=[N+]([O-])c3ccccc3C2=O)cc1
[1]
  TGI: > 70 µM
[2]
  TGI: > 75.1 µM
[3]
  TGI: > 55.4 µM
[4]
  TGI: 31.2 µM
[6]
  TGI: 22.9 µM
[7]
  TGI: 27.5 µM
[8]
  TGI: 33.1 µM
[9]
  TGI: 33 µM

## Brc1nc2c3ccccc3ncn2c1Br
[1]
  TGI: 84.6 µM
[2]
  TGI: > 100 µM
[3]
  TGI: > 100 µM
[4]
  TGI: 77.4 µM
[5]
  TGI: > 100 µM
[6]
  TGI: > 100 µM
[7]
  TGI: 39.3 µM
[8]
  TGI: 49.2 µM
[9]
  TGI: > 100 µM

## Nc1ccc(CCN2CCN(c3cccc(C(F)(F)F)c3)CC2)cc1
[1]
  TGI: 89.7 µM
[2]
  TGI: > 100 µM
[3]
  TGI: > 100 µM
[4]
  TGI: > 100 µM
[6]
  TGI: > 100 µM
[7]
  TGI: > 100 µM
[8]
  TGI: > 100 µM
[9]
  TGI: > 100 µM

## OCc1ccc(N(Cc2ccc(F)cc2)C2CCC2)cc1Cl
[1]
  GI50: 15.7 µM
  TGI: 36.7 µM
[10]
  GI50: 0.141 µM
  TGI: 0.815 µM
[2]
  GI50: 18.1 µM
  TGI: 33.9 µM
[4]
  GI50: 15.1 µM
  TGI: 29.3 µM
[7]
  GI50: 9.11 µM
  TGI: 21.8 µM
[8]
  GI50: 0.124 µM
  TGI: 0.846 µM
[9]
  GI50: 0.121 µM
  TGI: 0.46 µM
